Laboratory results taken from publication PMC7932537, “Quantitative profiling of protease specificity” (PLoS Computational Biology, 2021).

How the values were obtained:
[1] = molecular target: MMP-9 (Homo sapiens, UniProt P14780); test: K(obs) of individual phage substrates (set of 1369); format: biochemical; settings: MMP9, individual phage substrates, set of 1369 peptides
[2] = molecular target: T1, MMP-2 (Homo sapiens, UniProt P08253); test: as above; format: biochemical; settings: MMP2
T1 sequence (P08253 110-660): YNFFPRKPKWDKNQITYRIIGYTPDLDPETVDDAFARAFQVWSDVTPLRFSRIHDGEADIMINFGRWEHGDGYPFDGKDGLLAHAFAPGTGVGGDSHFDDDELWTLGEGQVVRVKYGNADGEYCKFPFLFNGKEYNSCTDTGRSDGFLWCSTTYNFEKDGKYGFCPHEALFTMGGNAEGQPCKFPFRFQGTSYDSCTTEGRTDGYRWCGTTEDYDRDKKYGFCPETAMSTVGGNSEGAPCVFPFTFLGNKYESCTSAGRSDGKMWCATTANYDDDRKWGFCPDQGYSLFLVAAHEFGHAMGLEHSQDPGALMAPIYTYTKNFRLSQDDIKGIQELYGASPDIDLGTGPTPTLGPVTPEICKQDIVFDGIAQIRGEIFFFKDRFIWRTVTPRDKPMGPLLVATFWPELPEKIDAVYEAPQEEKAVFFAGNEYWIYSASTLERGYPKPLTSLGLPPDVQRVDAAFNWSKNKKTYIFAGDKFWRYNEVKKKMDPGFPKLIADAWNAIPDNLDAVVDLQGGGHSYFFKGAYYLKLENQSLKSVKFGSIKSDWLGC

[3] = '-' marks the cleavage position (P1-P1')
[4] = individual phage substrates, set of 1369 peptides, cleavage position marked by '-' in the sequence
[5] = dash in sequence marks cleavage position
[6] = individual phage substrate from the set of 1369 peptides, cleavage position marked by the dash in the sequence

Chain of MMP-9 (P14780 94-707): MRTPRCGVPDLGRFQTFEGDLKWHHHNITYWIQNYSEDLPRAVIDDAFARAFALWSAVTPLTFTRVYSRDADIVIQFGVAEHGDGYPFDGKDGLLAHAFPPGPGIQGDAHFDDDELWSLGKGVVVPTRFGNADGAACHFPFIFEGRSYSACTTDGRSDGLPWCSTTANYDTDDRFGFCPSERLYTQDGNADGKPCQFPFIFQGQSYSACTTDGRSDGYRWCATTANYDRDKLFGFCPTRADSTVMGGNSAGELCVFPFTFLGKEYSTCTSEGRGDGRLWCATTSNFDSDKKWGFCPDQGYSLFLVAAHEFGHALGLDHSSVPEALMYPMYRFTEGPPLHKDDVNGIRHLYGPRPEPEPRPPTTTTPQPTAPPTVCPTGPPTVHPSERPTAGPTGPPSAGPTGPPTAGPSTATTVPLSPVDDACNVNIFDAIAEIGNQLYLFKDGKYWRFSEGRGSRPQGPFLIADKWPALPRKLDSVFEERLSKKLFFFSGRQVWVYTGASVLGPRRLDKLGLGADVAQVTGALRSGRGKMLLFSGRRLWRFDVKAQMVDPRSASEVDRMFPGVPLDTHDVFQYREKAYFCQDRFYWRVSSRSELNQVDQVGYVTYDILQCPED

Row | Kobs [1, 3] [M⁻¹ s⁻¹] | Kobs [2, 4] [M⁻¹ s⁻¹] | Kobs [1, 5] [M⁻¹ s⁻¹] | Kobs [2, 6] [M⁻¹ s⁻¹] | Substance
1 | 142.481 | 231.616 | – | – | GGSGN-LIYWN
2 | 0 | 1870.4 | – | – | GHLAS-QRTAS
3 | – | – | 0 | 10866.7 | NDLAH-ITASG
4 | 585.336 | 551.253 | – | – | YQTMA-LTASG
5 | 3253.29 | 3964.21 | – | – | QAAFH-LTASG
6 | 3438.54 | 2038.8 | – | – | YFARQ-LTASG
7 | 0 | 836.403 | – | – | GRHQS-LRTAS
8 | 5090.5 | 12792.1 | – | – | IQLAW-LTASG
9 | 2916.17 | 3344.37 | – | – | AIYRS-MTASG
10 | 654.784 | 12792.1 | – | – | VSISF-LTASG
11 | – | – | 84.609 | 3438.54 | TRMAL-LTASG
12 | – | – | 386.839 | 113.394 | YKAFT-MTASG
13 | – | – | 0 | 0 | SGSYP-LTRTA
14 | – | – | 0 | 451.441 | GGSGN-LTFLA
15 | 0 | 1870.4 | – | – | GTIAY-LNTAS
16 | – | – | 0 | 142.481 | GGSGN-LVRVR
17 | 8321.48 | 12792.1 | – | – | QVPVF-LTASG
18 | – | – | 0 | 56.119 | GEVWR-LHTAS

Row | Kobs [1, 3] [M⁻¹ s⁻¹] | Kobs [2, 4] [M⁻¹ s⁻¹] | Kobs [1, 5] [M⁻¹ s⁻¹] | Kobs [2, 6] [M⁻¹ s⁻¹] | Substance
19 | – | – | 2038.8 | 6131.32 | GTPSK-LYTAS
20 | 201.585 | 517.582 | – | – | GKVNN-LVTAS
21 | 0 | 0 | – | – | GRVHR-LSTAS
22 | 951.362 | 551.253 | – | – | EVTMW-LTASG
23 | 2218.08 | 292.668 | – | – | GTVWA-LTTAS
24 | – | – | 0 | 323.705 | SGVNS-LFTTA
25 | – | – | 12792.1 | 12792.1 | GKPQN-LRTAS
26 | 2157.02 | 1981.53 | – | – | SGIYG-LRNTA
27 | 726.013 | 912.511 | – | – | NFGRP-LTASG
28 | – | – | 292.668 | 0 | TWAKM-LTASG
29 | – | – | 0 | 142.481 | GSGNS-LKRRT
30 | – | – | 3438.54 | 4082.43 | DYARA-MTASG
31 | 1925.41 | 654.784 | – | – | SGVWG-IRYTA
32 | – | – | 0 | 10866.7 | KVLAS-LTASG
33 | 0 | 5889.62 | – | – | QKYSN-LTASG
34 | 386.839 | 7386.83 | – | – | EQLAN-MTASG
35 | – | – | 0 | 0 | SGARG-IKLTA
36 | 836.403 | 0 | – | – | GQHMR-LITAS

The remaining lines, values behind:

Row | Substance | Kobs [1, 3] [M⁻¹ s⁻¹] | Kobs [2, 4] [M⁻¹ s⁻¹] | Kobs [1, 5] [M⁻¹ s⁻¹] | Kobs [2, 6] [M⁻¹ s⁻¹]
37 | TLTHH-LTASG | 0 | 0 | – | –
38 | RVPKL-LTASG | – | – | 4922.1 | 1870.4
39 | ARVGV-LTASG | – | – | 0 | 84.609
40 | GQPNF-LTASG | – | – | 1283.43 | 2157.02
41 | YFPLD-MTASG | – | – | 7815.03 | 3637.04
42 | GGSGR-LTLKW | – | – | 0 | 0
43 | GTIDL-LTTAS | 201.585 | 0 | – | –
44 | QRMDL-LTASG | 0 | 0 | – | –
45 | SYMFS-LTASG | 113.394 | 56.119 | – | –
46 | SGSFN-LTMTA | 418.952 | 0 | – | –
47 | VSVDQ-LTASG | – | – | 0 | 0
48 | CCAMG-LTASG | 4470.66 | 2218.08 | – | –
49 | TKVLW-LTASG | 10866.7 | 4763.33 | – | –
50 | WNSLN-LTASG | – | – | 451.441 | 484.315
51 | SGLGE-LRGTA | 3850.82 | 12792.1 | – | –
52 | KPVSA-LTASG | – | – | 551.253 | 12792.1
53 | PMARY-LTASG | 3637.04 | 12792.1 | – | –
54 | GIAMN-ILTAS | 990.764 | 0 | – | –
55 | ELYAS-LTASG | 0 | 12792.1 | – | –
56 | RTPLM-LTASG | 12792.1 | 12792.1 | – | –
57 | TAVRS-LTASG | – | – | 5889.62 | 12792.1
58 | FIARA-LTASG | 12792.1 | 12792.1 | – | –
59 | GQVRA-LRTAS | 12792.1 | 12792.1 | – | –

Row | Substance | Kobs [1, 3] [M⁻¹ s⁻¹] | Kobs [2, 4] [M⁻¹ s⁻¹] | Kobs [1, 5] [M⁻¹ s⁻¹] | Kobs [2, 6] [M⁻¹ s⁻¹]
60 | ELAWH-LTASG | – | – | 1373.05 | 1981.53
61 | SGVKF-LFNTA | – | – | 113.394 | 0
62 | GGSGR-LVLRV | 0 | 0 | – | –
63 | GGASG-LMTAS | 84.609 | 451.441 | – | –
64 | GVPSW-LSTAS | 12792.1 | 12792.1 | – | –
65 | LGWSS-LTASG | – | – | 0 | 3344.37
66 | VVAVS-LTASG | 9740.44 | 12792.1 | – | –
67 | QRANS-ITASG | 0 | 551.253 | – | –
68 | GSGNR-LMRLT | 0 | 0 | – | –
69 | VEAHA-LTASG | – | – | 2837.92 | 7015.91
70 | PGIAN-LTASG | 2218.08 | 7815.03 | – | –
71 | GYYGE-LLTAS | 27.918 | 990.764 | – | –
72 | VTPLY-LTASG | 12792.1 | 12792.1 | – | –
73 | AVTYA-LTASG | 2837.92 | 1071.29 | – | –
74 | GEIAS-LSTAS | – | – | 84.609 | 7386.83
75 | NSHMA-LTASG | – | – | 619.843 | 517.582
76 | SGLAS-LRLTA | 0 | 874.197 | – | –
77 | VRTMA-LTASG | 1030.73 | 142.481 | – | –
78 | SGPIP-IRKTA | 12792.1 | 12792.1 | – | –
79 | SGPLA-VRTTA | 12792.1 | 12792.1 | – | –
80 | GGSGP-LRARL | – | – | 0 | 1816.46
81 | KSPAY-LTASG | – | – | 10866.7 | 10866.7
82 | VHVHA-LTASG | 2476.66 | 5461.43 | – | –

Row | Substance | Kobs [1, 3] [M⁻¹ s⁻¹] | Kobs [2, 4] [M⁻¹ s⁻¹] | Kobs [1, 5] [M⁻¹ s⁻¹] | Kobs [2, 6] [M⁻¹ s⁻¹]
83 | YRVAF-LTASG | 5090.5 | 7015.91 | – | –
84 | SGVNR-ISLTA | – | – | 0 | 113.394
85 | MFHLN-ITASG | 690.17 | 1373.05 | – | –
86 | SLYRA-LTASG | 5667.28 | 7386.83 | – | –
87 | SGVAS-LMGTA | – | – | 8941.32 | 12792.1
88 | SGTWP-LSGTA | 8941.32 | 12792.1 | – | –
89 | GSGMA-LTHIT | – | – | 84.609 | 84.609
90 | GSGAW-LKKIT | 0 | 0 | – | –
91 | IVNAR-LTASG | 56.119 | 2038.8 | – | –
92 | SGNLA-LKQTA | 0 | 0 | – | –
93 | GRIAL-LTTAS | 0 | 7815.03 | – | –
94 | GQAWA-LGTAS | 355.093 | 484.315 | – | –
95 | SGVLS-LRYTA | 2837.92 | 1154.21 | – | –
96 | RVLSR-LTASG | 0 | 8941.32 | – | –
97 | GFAKH-LLTAS | – | – | 201.585 | 56.119
98 | SWGLA-LTASG | 690.17 | 619.843 | – | –
99 | GVGHN-LRTAS | 231.616 | 142.481 | – | –
100 | SGMSS-LKFTA | 0 | 323.705 | – | –
101 | MVVRH-LTASG | – | – | 12792.1 | 12792.1
102 | GSGFQ-LRVFT | 84.609 | 0 | – | –
103 | VHAVW-LTASG | 12792.1 | 12792.1 | – | –
